According to ChEMBL document CHEMBL4373723 (J Med Chem, 2019):
Bridge positions count the residues as written; N and C are the ends. Square brackets hold non-standard residues; d marks the D form. Peptide text beside a SMILES is read from it. I, II: the chains in the order shown. Ala(cPent) = N[C@@H](CC1CCCC1)C(=O)O; Nva(3-Et) = CCC(CC)[C@H](N)C(=O)O; hPhe = N[C@@H](CCc1ccccc1)C(=O)O; tBuAla = CC(C)(C)C[C@H](N)C(=O)O; Cha = N[C@@H](CC1CCCCC1)C(=O)O; Cba = N[C@@H](CC1CCC1)C(=O)O; hLeu = CC(C)CC[C@H](N)C(=O)O; Nle = CCCC[C@H](N)C(=O)O

What was measured:
Frizzled-7 [1] = molecular target: T1, Frizzled-7 (Homo sapiens, UniProt O75084); assay type: cell-based; conditions: cho
Frizzled-7 [2] = molecular target: T1, Frizzled-7; assay: biochemical; assay type: cell-based, CHO; conditions: read-out: Kd
Frizzled-7 [3] = molecular target: T1, Frizzled-7; conditions: CHO
Description: Binding affinity to recombinant human Frizzled-7 (Gln33 to Leu185 residues)/human IgG1 chimeric protein expressed in CHO cells assessed as association rate constant by SPR assay

Row | SMILES | Kd (Frizzled-7 [1]) | Kd (Frizzled-7 [2]) | Ka (Frizzled-7 [3])
1 | CSCC[C@H](NC(=O)[C@@H](NC(=O)[C@H](Cc1cnc[nH]1)NC(=O)[C@H](CSSC[C@H](NC(=O)[C@H](Cc1c[nH]c2ccccc12)NC(=O)[C@H](CC(C)C)NC(=O)[C@H](CCCCN)NC(=O)[C@H](CC(C)C)NC(=O)[C@H](CC(=O)O)NC(=O)[C@H](CC(=O)O)NC(=O)[C@H](CO)NC(C)=O)C(=O)N[C@@H](Cc1cnc[nH]1)C(=O)N[C@H](C(=O)N[C@@H](CCSC)C(=O)N[C@@H](Cc1ccc(O)cc1)C(N)=O)C(C)C)NC(=O)[C@H](Cc1c[nH]c2ccccc12)NC(=O)[C@H](CC(C)C)NC(=O)[C@H](CCCCN)NC(=O)[C@H](CC(C)C)NC(=O)[C@H](CC(=O)O)NC(=O)[C@H](CC(=O)O)NC(=O)[C@H](CO)NC(C)=O)C(C)C)C(=O)N[C@@H](Cc1ccc(O)cc1)C(N)=O (I: Ac-SDDLKLWCHVMY-NH2 / II: Ac-SDDLKLWCHVMY-NH2; disulfide I:8-II:8) | 0.58 ×10⁻³ /s | 0.142 nM | 55.6 ×10⁵ /M/s
2 | CSCC[C@H](NC(=O)[C@@H](NC(=O)[C@H](Cc1cnc[nH]1)NC(=O)[C@H](CSSC[C@H](NC(=O)[C@H](Cc1c[nH]c2ccccc12)NC(=O)[C@H](Cc1ccccc1)NC(=O)[C@H](CCC(=O)O)NC(=O)[C@H](CC1CCCC1)NC(=O)[C@H](CC(=O)O)NC(=O)[C@H](CC(=O)O)NC(=O)[C@H](CO)NC(C)=O)C(=O)N[C@@H](Cc1cnc[nH]1)C(=O)N[C@H](C(=O)N[C@@H](CCSC)C(=O)N[C@@H](Cc1ccc(O)cc1)C(N)=O)C(C)C)NC(=O)[C@H](Cc1c[nH]c2ccccc12)NC(=O)[C@H](Cc1ccccc1)NC(=O)[C@H](CCC(=O)O)NC(=O)[C@H](CC1CCCC1)NC(=O)[C@H](CC(=O)O)NC(=O)[C@H](CC(=O)O)NC(=O)[C@H](CO)NC(C)=O)C(C)C)C(=O)N[C@@H](Cc1ccc(O)cc1)C(N)=O (I: Ac-SDD[Ala(cPent)]EFWCHVMY-NH2 / II: Ac-SDD[Ala(cPent)]EFWCHVMY-NH2; disulfide I:8-II:8) | 9.9 ×10⁻³ /s | 2.1 nM | 46.5 ×10⁵ /M/s
3 | CSCC[C@H](NC(=O)[C@@H](NC(=O)[C@H](Cc1cnc[nH]1)NC(=O)[C@H](CSSC[C@H](NC(=O)[C@H](Cc1c[nH]c2ccccc12)NC(=O)[C@H](Cc1ccccc1)NC(=O)[C@H](CCC(=O)O)NC(=O)[C@H](CC1CCC1)NC(=O)[C@H](CC(=O)O)NC(=O)[C@H](CC(=O)O)NC(=O)[C@H](CO)NC(C)=O)C(=O)N[C@@H](Cc1cnc[nH]1)C(=O)N[C@H](C(=O)N[C@@H](CCSC)C(=O)N[C@@H](Cc1ccc(O)cc1)C(N)=O)C(C)C)NC(=O)[C@H](Cc1c[nH]c2ccccc12)NC(=O)[C@H](Cc1ccccc1)NC(=O)[C@H](CCC(=O)O)NC(=O)[C@H](CC1CCC1)NC(=O)[C@H](CC(=O)O)NC(=O)[C@H](CC(=O)O)NC(=O)[C@H](CO)NC(C)=O)C(C)C)C(=O)N[C@@H](Cc1ccc(O)cc1)C(N)=O (I: Ac-SDD[Cba]EFWCHVMY-NH2 / II: Ac-SDD[Cba]EFWCHVMY-NH2; disulfide I:8-II:8) | 9.7 ×10⁻³ /s | 20.3 nM | 4.6 ×10⁵ /M/s
4 | CSCC[C@H](NC(=O)[C@@H](NC(=O)[C@H](Cc1cnc[nH]1)NC(=O)[C@H](CSSC[C@H](NC(=O)[C@H](Cc1c[nH]c2ccccc12)NC(=O)[C@H](Cc1ccccc1)NC(=O)[C@H](CCC(=O)O)NC(=O)[C@H](CC1CCCCC1)NC(=O)[C@H](CC(=O)O)NC(=O)[C@H](CC(=O)O)NC(=O)[C@H](CO)NC(C)=O)C(=O)N[C@@H](Cc1cnc[nH]1)C(=O)N[C@H](C(=O)N[C@@H](CCSC)C(=O)N[C@@H](Cc1ccc(O)cc1)C(N)=O)C(C)C)NC(=O)[C@H](Cc1c[nH]c2ccccc12)NC(=O)[C@H](Cc1ccccc1)NC(=O)[C@H](CCC(=O)O)NC(=O)[C@H](CC1CCCCC1)NC(=O)[C@H](CC(=O)O)NC(=O)[C@H](CC(=O)O)NC(=O)[C@H](CO)NC(C)=O)C(C)C)C(=O)N[C@@H](Cc1ccc(O)cc1)C(N)=O (I: Ac-SDD[Cha]EFWCHVMY-NH2 / II: Ac-SDD[Cha]EFWCHVMY-NH2; disulfide I:8-II:8) | 75.1 ×10⁻³ /s | 13.7 nM | 56.7 ×10⁵ /M/s
5 | CCCC[C@H](NC(=O)[C@H](CC(=O)O)NC(=O)[C@H](CC(=O)O)NC(=O)[C@H](CO)NC(C)=O)C(=O)N[C@@H](CCC(=O)O)C(=O)N[C@@H](Cc1ccccc1)C(=O)N[C@@H](Cc1c[nH]c2ccccc12)C(=O)N[C@@H](CSSC[C@H](NC(=O)[C@H](Cc1c[nH]c2ccccc12)NC(=O)[C@H](Cc1ccccc1)NC(=O)[C@H](CCC(=O)O)NC(=O)[C@H](CCCC)NC(=O)[C@H](CC(=O)O)NC(=O)[C@H](CC(=O)O)NC(=O)[C@H](CO)NC(C)=O)C(=O)N[C@@H](Cc1cnc[nH]1)C(=O)N[C@H](C(=O)N[C@@H](CCSC)C(=O)N[C@@H](Cc1ccc(O)cc1)C(N)=O)C(C)C)C(=O)N[C@@H](Cc1cnc[nH]1)C(=O)N[C@H](C(=O)N[C@@H](CCSC)C(=O)N[C@@H](Cc1ccc(O)cc1)C(N)=O)C(C)C (I: Ac-SDD[Nle]EFWCHVMY-NH2 / II: Ac-SDD[Nle]EFWCHVMY-NH2; disulfide I:8-II:8) | 23.1 ×10⁻³ /s | 5.4 nM | 42.8 ×10⁵ /M/s
6 | CCC(CC)[C@H](NC(=O)[C@H](CC(=O)O)NC(=O)[C@H](CC(=O)O)NC(=O)[C@H](CO)NC(C)=O)C(=O)N[C@@H](CCC(=O)O)C(=O)N[C@@H](Cc1ccccc1)C(=O)N[C@@H](Cc1c[nH]c2ccccc12)C(=O)N[C@@H](CSSC[C@H](NC(=O)[C@H](Cc1c[nH]c2ccccc12)NC(=O)[C@H](Cc1ccccc1)NC(=O)[C@H](CCC(=O)O)NC(=O)[C@@H](NC(=O)[C@H](CC(=O)O)NC(=O)[C@H](CC(=O)O)NC(=O)[C@H](CO)NC(C)=O)C(CC)CC)C(=O)N[C@@H](Cc1cnc[nH]1)C(=O)N[C@H](C(=O)N[C@@H](CCSC)C(=O)N[C@@H](Cc1ccc(O)cc1)C(N)=O)C(C)C)C(=O)N[C@@H](Cc1cnc[nH]1)C(=O)N[C@H](C(=O)N[C@@H](CCSC)C(=O)N[C@@H](Cc1ccc(O)cc1)C(N)=O)C(C)C (I: Ac-SDD[Nva(3-Et)]EFWCHVMY-NH2 / II: Ac-SDD[Nva(3-Et)]EFWCHVMY-NH2; disulfide I:8-II:8) | 29.2 ×10⁻³ /s | 3.9 nM | 73.6 ×10⁵ /M/s
7 | CSCC[C@H](NC(=O)[C@@H](NC(=O)[C@H](Cc1cnc[nH]1)NC(=O)[C@H](CSSC[C@H](NC(=O)[C@H](Cc1c[nH]c2ccccc12)NC(=O)[C@H](Cc1ccccc1)NC(=O)[C@H](CCC(=O)O)NC(=O)[C@H](CCC(C)C)NC(=O)[C@H](CC(=O)O)NC(=O)[C@H](CC(=O)O)NC(=O)[C@H](CO)NC(C)=O)C(=O)N[C@@H](Cc1cnc[nH]1)C(=O)N[C@H](C(=O)N[C@@H](CCSC)C(=O)N[C@@H](Cc1ccc(O)cc1)C(N)=O)C(C)C)NC(=O)[C@H](Cc1c[nH]c2ccccc12)NC(=O)[C@H](Cc1ccccc1)NC(=O)[C@H](CCC(=O)O)NC(=O)[C@H](CCC(C)C)NC(=O)[C@H](CC(=O)O)NC(=O)[C@H](CC(=O)O)NC(=O)[C@H](CO)NC(C)=O)C(C)C)C(=O)N[C@@H](Cc1ccc(O)cc1)C(N)=O (I: Ac-SDD[hLeu]EFWCHVMY-NH2 / II: Ac-SDD[hLeu]EFWCHVMY-NH2; disulfide I:8-II:8) | 123.5 ×10⁻³ /s | 115 nM | 10.9 ×10⁵ /M/s
8 | CSCC[C@H](NC(=O)[C@@H](NC(=O)[C@H](Cc1cnc[nH]1)NC(=O)[C@H](CSSC[C@H](NC(=O)[C@H](Cc1c[nH]c2ccccc12)NC(=O)[C@H](Cc1ccccc1)NC(=O)[C@H](CCC(=O)O)NC(=O)[C@H](CCc1ccccc1)NC(=O)[C@H](CC(=O)O)NC(=O)[C@H](CC(=O)O)NC(=O)[C@H](CO)NC(C)=O)C(=O)N[C@@H](Cc1cnc[nH]1)C(=O)N[C@H](C(=O)N[C@@H](CCSC)C(=O)N[C@@H](Cc1ccc(O)cc1)C(N)=O)C(C)C)NC(=O)[C@H](Cc1c[nH]c2ccccc12)NC(=O)[C@H](Cc1ccccc1)NC(=O)[C@H](CCC(=O)O)NC(=O)[C@H](CCc1ccccc1)NC(=O)[C@H](CC(=O)O)NC(=O)[C@H](CC(=O)O)NC(=O)[C@H](CO)NC(C)=O)C(C)C)C(=O)N[C@@H](Cc1ccc(O)cc1)C(N)=O (I: Ac-SDD[hPhe]EFWCHVMY-NH2 / II: Ac-SDD[hPhe]EFWCHVMY-NH2; disulfide I:8-II:8) | 9.1 ×10⁻³ /s | 1.4 nM | 69.6 ×10⁵ /M/s
9 | CSCC[C@H](NC(=O)[C@@H](NC(=O)[C@H](Cc1cnc[nH]1)NC(=O)[C@H](CSSC[C@H](NC(=O)[C@H](Cc1c[nH]c2ccccc12)NC(=O)[C@H](Cc1ccccc1)NC(=O)[C@H](CCC(=O)O)NC(=O)[C@H](CC(C)(C)C)NC(=O)[C@H](CC(=O)O)NC(=O)[C@H](CC(=O)O)NC(=O)[C@H](CO)NC(C)=O)C(=O)N[C@@H](Cc1cnc[nH]1)C(=O)N[C@H](C(=O)N[C@@H](CCSC)C(=O)N[C@@H](Cc1ccc(O)cc1)C(N)=O)C(C)C)NC(=O)[C@H](Cc1c[nH]c2ccccc12)NC(=O)[C@H](Cc1ccccc1)NC(=O)[C@H](CCC(=O)O)NC(=O)[C@H](CC(C)(C)C)NC(=O)[C@H](CC(=O)O)NC(=O)[C@H](CC(=O)O)NC(=O)[C@H](CO)NC(C)=O)C(C)C)C(=O)N[C@@H](Cc1ccc(O)cc1)C(N)=O (I: Ac-SDD[tBuAla]EFWCHVMY-NH2 / II: Ac-SDD[tBuAla]EFWCHVMY-NH2; disulfide I:8-II:8) | 0.95 ×10⁻³ /s | 0.22 nM | 44 ×10⁵ /M/s
10 | CSCC[C@H](NC(=O)[C@@H](NC(=O)[C@H](Cc1cnc[nH]1)NC(=O)[C@H](CSSC[C@H](NC(=O)[C@H](Cc1c[nH]c2ccccc12)NC(=O)[C@H](Cc1ccccc1)NC(=O)[C@H](CCC(=O)O)NC(=O)[C@H](CC(C)C)NC(=O)[C@H](CC(=O)O)NC(=O)[C@H](CC(=O)O)NC(=O)[C@@H](NC(C)=O)[C@@H](C)O)C(=O)N[C@@H](Cc1cnc[nH]1)C(=O)N[C@H](C(=O)N[C@@H](CCSC)C(=O)N[C@@H](Cc1ccc(O)cc1)C(N)=O)C(C)C)NC(=O)[C@H](Cc1c[nH]c2ccccc12)NC(=O)[C@H](Cc1ccccc1)NC(=O)[C@H](CCC(=O)O)NC(=O)[C@H](CC(C)C)NC(=O)[C@H](CC(=O)O)NC(=O)[C@H](CC(=O)O)NC(=O)[C@@H](NC(C)=O)[C@@H](C)O)C(C)C)C(=O)N[C@@H](Cc1ccc(O)cc1)C(N)=O (I: Ac-TDDLEFWCHVMY-NH2 / II: Ac-TDDLEFWCHVMY-NH2; disulfide I:8-II:8) | 0.72 ×10⁻³ /s | 0.14 nM | 51.5 ×10⁵ /M/s
